Drawing on PubChem BioAssay AID256 (DTP/NCI, 2004), this text covers T/C for 25 compounds.

For the assay, the system named is CD2F1 mice, L1210 leukemia ip, survival T/C. Description: NCI In Vivo Anticancer Drug Screen. Data for tumor model L1210 Leukemia (intraperitoneal) in CD2F1 (CDF1) mice. Particulars: higher = longer survival. Here is the method:
The antitumor activity of compounds was measured in mice bearing transplantable tumors. Survival or tumor size were measured and the results are expressed as the measurement made in the treated group (T) divided by the measurement made in the vehicle treated control group (C). The tumor model used in this assay is L1210 Leukemia (intraperitoneal) in CD2F1 (CDF1) mice

[1] abbreviates: endpoint: mean survival time, dose: 100.0 mg/kg/injection, schedule: Q04DX003 (ip), vehicle: other.
Setting [2] is: endpoint: mean survival time, dose: 200.0 mg/kg/injection, schedule: Q04DX003 (ip), vehicle: other.
Where [3] appears, read: endpoint: mean survival time, dose: 400.0 mg/kg/injection, schedule: Q04DX003 (ip), vehicle: other.
Where [4] appears, read: endpoint: mean survival time, dose: 100.0 mg/kg/injection, schedule: Q01DX009 (ip), vehicle: saline with Tween-80.
[5] abbreviates: endpoint: mean survival time, dose: 200.0 mg/kg/injection, schedule: Q01DX009 (ip), vehicle: saline with Tween-80.
The mark [6] stands for this setting: endpoint: mean survival time, dose: 400.0 mg/kg/injection, schedule: Q01DX009 (ip), vehicle: saline with Tween-80.
The mark [7] stands for this setting: endpoint: mean survival time, dose: 100.0 mg/kg/injection, schedule: Q01DX001 (ip), vehicle: saline with Tween-80.
Setting [8] is: endpoint: mean survival time, dose: 200.0 mg/kg/injection, schedule: Q01DX001 (ip), vehicle: saline with Tween-80.
[9] abbreviates: endpoint: mean survival time, dose: 400.0 mg/kg/injection, schedule: Q01DX001 (ip), vehicle: saline with Tween-80.
The mark [10] stands for this setting: endpoint: mean survival time, dose: 100.0 mg/kg/injection, schedule: Q04DX003 (ip), vehicle: saline with Tween-80.
Where [11] appears, read: endpoint: mean survival time, dose: 200.0 mg/kg/injection, schedule: Q04DX003 (ip), vehicle: saline with Tween-80.
Setting [12] is: endpoint: mean survival time, dose: 400.0 mg/kg/injection, schedule: Q04DX003 (ip), vehicle: saline with Tween-80.
The mark [13] stands for this setting: endpoint: mean survival time, dose: 25.0 mg/kg/injection, schedule: Q01DX009 (ip), vehicle: saline with Tween-80.
Setting [14] is: endpoint: mean survival time, dose: 50.0 mg/kg/injection, schedule: Q01DX009 (ip), vehicle: saline with Tween-80.
Setting [15] is: endpoint: mean survival time, dose: 100.0 mg/kg/injection, schedule: Q01DX001 (ip), vehicle: saline.

Where “and” joins values, the source holds several entries; their conditions need not be identical. Equal values may be shown once. Toxic doses and inconclusive results are not listed.

Consider `CC(=O)OC1CCC2(C)C(=CCC3C2CCC2(C)C3CC3OC4(CCC(C)CO4)C(C)C32)C1` (configuration not stated), for which the T/C was 95 % of control under setting [1], 94 % of control under setting [2] and 94 % of control under setting [3].

As to `O=C(N/N=C/Cc1ccccc1)c1cc2ccccc2cc1O`, the T/C was 101 % of control under setting [4], 95 % of control under setting [5] and 108 % of control under setting [6].

In the case of `[C-]#[N+]C(C)(CC)c1ccccc1` (configuration not stated), for the setting “endpoint: mean survival time, dose: 35.0 mg/kg/injection, schedule: Q01DX009 (ip), vehicle: saline with Tween-80”, the T/C is 105 % of control.

As to `CC1Cc2c(N)cccc2C1=O` (configuration not stated), the T/C under setting [7] is 98 % of control, the T/C under setting [8] was 87 % of control and the T/C under setting [9] is 91 % of control.

On to `O=C1C(O)=C(c2ccccc2)C(=O)C(O)=C1c1ccccc1`, for which the T/C by setting is: (endpoint: mean survival time, dose: 3.12 mg/kg/injection, schedule: Q01DX009 (ip), vehicle: saline) 96 % of control; (endpoint: mean survival time, dose: 6.25 mg/kg/injection, schedule: Q01DX009 (ip), vehicle: saline) 95 % of control; (endpoint: mean survival time, dose: 12.5 mg/kg/injection, schedule: Q01DX009 (ip), vehicle: saline) 97 % of control; (endpoint: mean survival time, dose: 25.0 mg/kg/injection, schedule: Q01DX009 (ip), vehicle: saline) 101 % of control; (endpoint: mean survival time, dose: 50.0 mg/kg/injection, schedule: Q01DX009 (ip), vehicle: saline) 108 % of control.

For `CC(C)C1OCC(C)(C)C(C)O1` (configuration not stated), the T/C was 96 % of control (endpoint: mean survival time, dose: 50.0 mg/kg/injection, schedule: Q04DX002 (ip), vehicle: saline); 96 % of control (endpoint: mean survival time, dose: 100.0 mg/kg/injection, schedule: Q04DX002 (ip), vehicle: saline); 93 % of control (endpoint: mean survival time, dose: 200.0 mg/kg/injection, schedule: Q04DX002 (ip), vehicle: saline).

`CC(=O)NC1CCCC(C)C1` (configuration not stated): the T/C under setting [10] was 96 % of control, the T/C under setting [11] was 96 % of control and the T/C under setting [12] is 96 % of control.

Take `Nc1ccccc1N`: the T/C is, setting by setting: under setting [13], 95 % of control; under setting [5], 93 % of control.

Turning to `CN1C=CC(C(C(N)=O)c2ccccc2)c2ccccc21` (configuration not stated), the T/C reads like this: under setting [10], 96 % of control; under setting [11], 102 % of control; under setting [12], 97 % of control.

As for `CCN(CC)CCn1[nH]c2c3ccc(=O)cc3sc3c(NCCN)ccc1c32`, the T/C is, setting by setting: (endpoint: median survival time, dose: 1.5 mg/kg/injection, schedule: Q01DX009 (ip), vehicle: water) 168 % of control; (endpoint: median survival time, dose: 1.56 mg/kg/injection, schedule: Q01DX005 (ip), vehicle: water) 154 % of control; (endpoint: median survival time, dose: 3.0 mg/kg/injection, schedule: Q01DX005 (ip), vehicle: water) 183 % of control; (endpoint: median survival time, dose: 3.0 mg/kg/injection, schedule: Q01DX009 (ip), vehicle: water) 180 % of control; (endpoint: median survival time, dose: 3.12 mg/kg/injection, schedule: Q01DX005 (ip), vehicle: water) 192 % of control and 244 % of control; (endpoint: median survival time, dose: 6.0 mg/kg/injection, schedule: Q01DX005 (ip), vehicle: water) 152 % of control. Also, the T/C runs as follows: (endpoint: median survival time, dose: 6.0 mg/kg/injection, schedule: Q01DX009 (ip), vehicle: water) 216 % of control; (endpoint: median survival time, dose: 6.25 mg/kg/injection, schedule: Q01DX005 (ip), vehicle: water) 186 % of control and 357 % of control; (endpoint: median survival time, dose: 12.0 mg/kg/injection, schedule: Q01DX005 (ip), vehicle: water) 95 % of control; (endpoint: median survival time, dose: 12.0 mg/kg/injection, schedule: Q01DX009 (ip), vehicle: water) 216 % of control; (endpoint: median survival time, dose: 12.5 mg/kg/injection, schedule: Q01DX005 (ip), vehicle: water) 231 % of control and 357 % of control.

Consider `COc1ccc(CC(=O)NC(C)Cc2ccc(OC)c(OC)c2)cc1OC` (configuration not stated), for which the T/C runs as follows: (endpoint: mean survival time, dose: 12.5 mg/kg/injection, schedule: Q01DX009 (ip), vehicle: water) 91 % of control; (endpoint: mean survival time, dose: 25.0 mg/kg/injection, schedule: Q01DX009 (ip), vehicle: water) 89 % of control; (endpoint: mean survival time, dose: 50.0 mg/kg/injection, schedule: Q01DX009 (ip), vehicle: water) 95 % of control; (endpoint: mean survival time, dose: 100.0 mg/kg/injection, schedule: Q01DX009 (ip), vehicle: water) 94 % of control; (endpoint: mean survival time, dose: 200.0 mg/kg/injection, schedule: Q01DX009 (ip), vehicle: water) 91 % of control.

With `CCN(CC)C(=O)Nc1cc2c3c(c1)CCCN3CCC2`, the T/C was 98 % of control under setting [10], 96 % of control under setting [11] and 87 % of control under setting [12].

Consider `Clc1cc(Cl)cc(Nc2nc(C(Cl)(Cl)Cl)nc(C(Cl)(Cl)Cl)n2)c1`, for which the T/C reads like this: under setting [14], 98 % of control; under setting [4], 95 % of control; under setting [10], 89 % of control; under setting [5], 90 % of control; under setting [11], 86 % of control.

For the compound `CCOC(=O)C(Cc1ccc(OC)c(OC)c1)C(Cc1ccc(OC)c(OC)c1)C(=O)OCC` (configuration not stated), the T/C runs as follows: under setting [4], 96 % of control; under setting [10], 95 % of control; under setting [5], 95 % of control; under setting [11], 93 % of control; under setting [6], 96 % of control; under setting [12], 87 % of control.

Consider `COc1cc2c(cc1OC)C(C)=NCC2`, for which, under “endpoint: mean survival time, dose: 100.0 mg/kg/injection, schedule: Q04DX003 (ip), vehicle: saline”, the T/C was 104 % of control.

For `O=C1c2c(O)ccc(O)c2C(=O)c2c(NCCO)ccc(NCCO)c21`, the T/C reads like this: under setting [4], 103 % of control; under setting [5], 110 % of control; under setting [6], 113 % of control.

Consider `CSc1cc(C)c(O)c(CO)c1`, for which the T/C is 104 % of control under setting [1], 98 % of control under setting [2] and 100 % of control under setting [3].

Turning to `CN(C)CCNCc1ccc2c(c1)OCO2`, the T/C was 102 % of control (endpoint: mean survival time, dose: 25.0 mg/kg/injection, schedule: Q01DX001 (ip), vehicle: saline); 102 % of control (endpoint: mean survival time, dose: 50.0 mg/kg/injection, schedule: Q01DX001 (ip), vehicle: saline); 102 % of control under setting [15].

Regarding `C=C1C[C@@H](O)[C@H](O)[C@@]2(C)C[C@@H]3OC(=O)C(=C)[C@@H]3C[C@H]12`, the T/C under setting [4] is 102 % of control.

Regarding `NNC(=O)Nc1ccccc1`, the T/C is 102 % of control (endpoint: mean survival time, dose: 6.25 mg/kg/injection, schedule: Q01DX001 (ip), vehicle: saline with Tween-80); 102 % of control (endpoint: mean survival time, dose: 12.5 mg/kg/injection, schedule: Q01DX001 (ip), vehicle: saline with Tween-80); 97 % of control (endpoint: mean survival time, dose: 25.0 mg/kg/injection, schedule: Q01DX001 (ip), vehicle: saline with Tween-80).

Consider `O=S(=O)(O)c1cc2cc(S(=O)(=O)O)c(O)cc2cc1O.[NH-]C1CCCCC1[NH-].[Pt+2]`, for which the T/C runs as follows: (endpoint: median survival time, dose: 3.12 mg/kg/injection, schedule: Q04DX003 (ip), vehicle: saline) 114 % of control and 118 % of control; (endpoint: median survival time, dose: 6.25 mg/kg/injection, schedule: Q04DX003 (ip), vehicle: saline) 118 % of control and 110 % of control; (endpoint: median survival time, dose: 12.5 mg/kg/injection, schedule: Q04DX003 (ip), vehicle: saline) 113 % of control and 112 % of control; (endpoint: median survival time, dose: 50.0 mg/kg/injection, schedule: Q04DX003 (ip), vehicle: saline) 158 % of control; (endpoint: median survival time, dose: 100.0 mg/kg/injection, schedule: Q04DX003 (ip), vehicle: saline) 154 % of control and 207 % of control; (endpoint: median survival time, dose: 200.0 mg/kg/injection, schedule: Q04DX003 (ip), vehicle: saline) 229 % of control and 365 % of control.

For `ClC1CCC[N-]C1.ClC1CCC[N-]C1.O=C(O)CC(=O)O.[Pt+2]` (configuration not stated), the T/C is, setting by setting: (endpoint: mean survival time, dose: 12.5 mg/kg/injection, schedule: Q01DX009 (ip), vehicle: saline with Tween-80) 102 % of control; under setting [13], 100 % of control; under setting [14], 104 % of control; under setting [4], 104 % of control; under setting [5], 94 % of control.

`COc1ccc(/C=C2/Cc3cccc4c([N+](=O)[O-])ccc2c34)cc1`: the T/C runs as follows: under setting [7], 89 % of control; under setting [8], 86 % of control; under setting [9], 102 % of control.

On to `CC(NC(=O)c1cnc2ccccc2n1)C(=O)NC(C(=O)O)C(C)C` (configuration not stated), for which the T/C is, setting by setting: under setting [15], 100 % of control; (endpoint: mean survival time, dose: 200.0 mg/kg/injection, schedule: Q01DX001 (ip), vehicle: saline) 100 % of control; (endpoint: mean survival time, dose: 400.0 mg/kg/injection, schedule: Q01DX001 (ip), vehicle: saline) 102 % of control.

As for `Cc1c(F)c(F)c(C(=O)O)c(F)c1F`, the T/C is, setting by setting: under setting [4], 96 % of control; under setting [10], 100 % of control; under setting [5], 93 % of control; under setting [11], 101 % of control; under setting [12], 93 % of control.
